According to the supplement of paper PMC11061612:

Key:
Experiment in all cases: combination Emax (second highest fraction inhibited in the dose matrix, 72 h); higher = more inhibition; extreme values may be limits of the assay
[1] = system: ASH-3 (Thyroid Gland Carcinoma)
Procedure, shortened: (§1)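 Bliss excess equals the observed combination effect minus the expected value EA + EB − EA·EB, where EA and EB are the effects of each agent alone. Combination Emax is the second-highest inhibition within the matrix. Inhibition was scaled from CellTiter-Glo 2.0 luminescence, with 0 set by vehicle wells and 1 by blank wells, after 72 hours of two-drug dosing of cells plated in 1536-well plates.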

BT-20 (Breast Carcinoma) = system: BT-20 (Breast Carcinoma)
Procedure, shortened: as §1

EW-18 (Ewing's Sarcoma) = system: EW-18 (Ewing's Sarcoma)
Procedure, shortened: as §1

GOTO (Neuroblastoma) = system: GOTO (Neuroblastoma)
Procedure, shortened: as §1

[2] = system: HSC-2 (Oral Cavity Carcinoma)
Procedure, shortened: as §1

[3] = system: JHH-7 (Hepatocellular Carcinoma)
Procedure, shortened: as §1

[4] = system: KU-19-19 (Bladder Carcinoma)
Procedure, shortened: as §1

[5] = system: LOU-NH91 (Squamous Cell Lung Carcinoma)
Procedure, shortened: as §1

[6] = system: MFE-319 (Endometrial Carcinoma)
Procedure, shortened: as §1

NB7 (Neuroblastoma) = system: NB7 (Neuroblastoma)
Procedure, shortened: as §1

[7] = system: NCI-H2347 (Lung Adenocarcinoma)
Procedure, shortened: as §1

[8] = system: NCI-H2405 (Lung Adenocarcinoma)
Procedure, shortened: as §1

[9] = system: NCI-H322M (Lung Adenocarcinoma)
Procedure, shortened: as §1

[10] = system: NCI-N87 (Gastric Carcinoma)
Procedure, shortened: as §1

[11] = system: OCUM-1 (Gastric Carcinoma)
Procedure, shortened: as §1

[12] = system: OVISE (Ovarian Carcinoma)
Procedure, shortened: as §1

[13] = system: PF-382 (T-Lymphoblastic Leukemia)
Procedure, shortened: as §1

RPMI-7951 (Melanoma) = system: RPMI-7951 (Melanoma)
Procedure, shortened: as §1

[14] = system: SCC-3 (B-Cell Non-Hodgkin's Lymphoma)
Procedure, shortened: as §1

[15] = system: TGBC11TKB (Gastric Carcinoma)
Procedure, shortened: as §1

SMILES | combination Emax [1] | combination Emax (BT-20 (Breast Carcinoma)) | combination Emax (EW-18 (Ewing's Sarcoma)) | combination Emax (GOTO (Neuroblastoma)) | combination Emax [2] | combination Emax [3] | combination Emax [4] | combination Emax [5] | combination Emax [6] | combination Emax (NB7 (Neuroblastoma)) | combination Emax [7] | combination Emax [8] | combination Emax [9] | combination Emax [10] | combination Emax [11] | combination Emax [12] | combination Emax [13] | combination Emax (RPMI-7951 (Melanoma)) | combination Emax [14] | combination Emax [15]
C[C@@H](c1ccc2nccn2c1)n1nnc2ncc(-c3cnn(C)c3)nc21 [Savolitinib] + CC1(C)CCC(CN2CCN(c3ccc(C(=O)NS(=O)(=O)c4ccc(NCC5CCOCC5)c([N+](=O)[O-])c4)c(Oc4cnc5[nH]ccc5c4)c3)CC2)=C(c2ccc(Cl)cc2)C1 [Venetoclax] (first compound max 1 µM, 7x7, partner max 1 µM) | 0.16 | 0.0828 | 0.229 | 0.266 | 0.186 | 0.114 | 0.132 | 0.135 | 0 | 0.108 | 0.116 | 0.038 | 0.0582 | 0.22 | 0.187 | 0.0991 | 0.134 | 0.13 | 0.0971 | 0.0823
C[C@@H](c1ccc2nccn2c1)n1nnc2ncc(-c3cnn(C)c3)nc21 [Savolitinib] + Cc1c2c(nn1C)CSCc1cc(n(C)n1)CSc1cc(c3ccccc3c1)OCCCc1c(C(=O)O)n(C)c3c-2c(Cl)ccc13 [AZD5991] (first compound max 1 µM, 7x7, partner max 1 µM) | 0.299 | 0.465 | 0.874 | 0.804 | 0.711 | 0.205 | 0.204 | 0.199 | 0.406 | 0.462 | 0.107 | 0.0962 | 0.086 | 0.22 | 0.257 | 0.148 | 0.134 | 0.266 | 0.279 | 0.507
Cn1cnc2c(F)c(Nc3ccc(Br)cc3Cl)c(C(=O)NOCCO)cc21 [Selumetinib] + C=CCn1c(=O)c2cnc(Nc3ccc(N4CCN(C)CC4)cc3)nc2n1-c1cccc(C(C)(C)O)n1 [AZD1775] (first compound max 10 µM, partner max 1 µM) | 0.367 | 0.695 | 0.526 | 0.928 | 0.372 | 0.229 | 0.917 | 0.423 | 0.671 | 0.619 | 0.468 | 0.395 | 0.861 | 0.712 | 0.944 | 0.593 | 0.974 | 0.741 | 0.896 | 0.912
Cn1cnc2c(F)c(Nc3ccc(Br)cc3Cl)c(C(=O)NOCCO)cc21 [Selumetinib] + CC(C)n1c(=O)n(C)c2cnc3cc(F)c(-c4ccc(OCCCN5CCCCC5)nc4)cc3c21 [AZD1390] (first compound max 10 µM, 7x7, partner max 0.3 µM) | 0.304 | 0.252 | 0.28 | 0.283 | 0.248 | 0.262 | 0.917 | 0.219 | 0.154 | 0.0793 | 0.308 | 0.364 | 0.527 | 0.3 | 0.951 | 0.184 | 0.211 | 0.307 | 0.369 | 0.507
Cn1cnc2c(F)c(Nc3ccc(Br)cc3Cl)c(C(=O)NOCCO)cc21 [Selumetinib] + CCN(CCO)CCCOc1ccc2c(Nc3cc(CC(=O)Nc4cccc(F)c4)[nH]n3)ncnc2c1 [AZD2811] (first compound max 10 µM, 7x7, partner max 1 µM) | 0.391 | 0.474 | 0.7 | 0.648 | 0.376 | 0.25 | 0.955 | 0.372 | 0.262 | 0.415 | 0.312 | 0.408 | 0.602 | 0.305 | 0.93 | 0.273 | 0.911 | 0.425 | 0.43 | 0.569
Cn1cnc2c(F)c(Nc3ccc(Br)cc3Cl)c(C(=O)NOCCO)cc21 [Selumetinib] + C[C@@H]1COCCN1C2=NC(=NC(=C2)C3(CC3)[S@](=N)(=O)C)C4=C5C=CNC5=NC=C4 [AZD6738] (first compound max 10 µM, 7x7, partner max 10 µM) | 0.607 | 0.576 | 0.696 | 0.946 | 0.569 | 0.311 | 0.89 | 0.353 | 0.752 | 0.597 | 0.382 | 0.401 | 0.88 | 0.632 | 0.951 | 0.54 | 0.912 | 0.873 | 0.933 | 0.854
CC(=O)Nc1cccc(-n2c(=O)n(C3CC3)c(=O)c3c(Nc4ccc(I)cc4F)n(C)c(=O)c(C)c32)c1 [Trametinib] + Cc1nc(-c2cn3c(n2)-c2ccc(-c4cnn(C(C)(C)C(N)=O)c4)cc2OCC3)n(C(C)C)n1 [Taselisib] (first compound max 1 µM, 7x7, partner max 10 µM) | 0.962 | 1 | 0.637 | 0.701 | 1 | 0.429 | 1 | 0.672 | 0.799 | 0.577 | 0.618 | 0.665 | 0.887 | 0.913 | 1 | 0.696 | 0.905 | 0.931 | 0.736 | 0.86
CC1(C)CCC(CN2CCN(c3ccc(C(=O)NS(=O)(=O)c4ccc(NCC5CCOCC5)c([N+](=O)[O-])c4)c(Oc4cnc5[nH]ccc5c4)c3)CC2)=C(c2ccc(Cl)cc2)C1 [Venetoclax] + C1CN(CCC1(C(=O)N[C@@H](CCO)C2=CC=C(C=C2)Cl)N)C3=NC=NC4=C3C=CN4 [Capivasertib] (first compound max 1 µM, 7x7, partner max 3 µM) | 0.285 | 0.62 | 0.662 | 0.365 | 0.364 | 0.149 | 0.2 | 0.36 | 0.321 | 0.056 | 0.158 | 0.187 | 0.167 | 0.521 | 0.314 | 0.456 | 0.518 | 0.472 | 0.131 | 0.153
CC1(C)CCC(CN2CCN(c3ccc(C(=O)NS(=O)(=O)c4ccc(NCC5CCOCC5)c([N+](=O)[O-])c4)c(Oc4cnc5[nH]ccc5c4)c3)CC2)=C(c2ccc(Cl)cc2)C1 [Venetoclax] + C=CCn1c(=O)c2cnc(Nc3ccc(N4CCN(C)CC4)cc3)nc2n1-c1cccc(C(C)(C)O)n1 [AZD1775] (first compound max 1 µM, partner max 1 µM) | 0.294 | 0.672 | 0.587 | 0.921 | 0.833 | 0.349 | 0.841 | 0.436 | 0.858 | 0.722 | 0.291 | 0.169 | 0.862 | 0.8 | 0.653 | 0.669 | 0.986 | 0.731 | 0.903 | 0.942
CC1(C)CCC(CN2CCN(c3ccc(C(=O)NS(=O)(=O)c4ccc(NCC5CCOCC5)c([N+](=O)[O-])c4)c(Oc4cnc5[nH]ccc5c4)c3)CC2)=C(c2ccc(Cl)cc2)C1 [Venetoclax] + CCN(CCO)CCCOc1ccc2c(Nc3cc(CC(=O)Nc4cccc(F)c4)[nH]n3)ncnc2c1 [AZD2811] (first compound max 1 µM, 7x7, partner max 1 µM) | 0.318 | 0.294 | 0.707 | 0.693 | 0.327 | 0.184 | 0.404 | 0.307 | 0.243 | 0.259 | 0.145 | 0.167 | 0.188 | 0.242 | 0.53 | 0.311 | 0.905 | 0.454 | 0.31 | 0.424
CC1(C)CCC(CN2CCN(c3ccc(C(=O)NS(=O)(=O)c4ccc(NCC5CCOCC5)c([N+](=O)[O-])c4)c(Oc4cnc5[nH]ccc5c4)c3)CC2)=C(c2ccc(Cl)cc2)C1 [Venetoclax] + CN(C)CCCOc1ccc(-c2ccc3ncc4c(c3c2)n(C2CCOCC2)c(=O)n4C)cn1 [AZD0156] (first compound max 1 µM, 7x7, partner max 1 µM) | 0.229 | 0.132 | 0.389 | 0.455 | 0.722 | 0.18 | 0.135 | 0.227 | 0.243 | 0.18 | 0.191 | 0.14 | 0.31 | 0.461 | 0.284 | 0.262 | 0.256 | 0.304 | 0.157 | 0.235
CC1(C)CCC(CN2CCN(c3ccc(C(=O)NS(=O)(=O)c4ccc(NCC5CCOCC5)c([N+](=O)[O-])c4)c(Oc4cnc5[nH]ccc5c4)c3)CC2)=C(c2ccc(Cl)cc2)C1 [Venetoclax] + COc1cc(Nc2ncc3c(n2)-c2ccc(Cl)cc2C(c2c(F)cccc2OC)=NC3)ccc1C(=O)O [Alisertib] (first compound max 1 µM, 7x7, partner max 10 µM) | 0.476 | 0.499 | 0.736 | 0.719 | 0.732 | 0.287 | 0.462 | 0.479 | 0.395 | 0.556 | 0.18 | 0.228 | 0.352 | 0.335 | 0.51 | 0.578 | 0.905 | 0.683 | 0.893 | 0.387
